Measured values published in patent US7268212B2, “Ligand of G protein-coupled receptor protein and DNA thereof” (Takeda Pharmaceutical Company Limited, priority 2001, dated 2007).
No end group written: not given here.

Experiments:
Wistar male rats = assay: Effect of GPR7 ligand on feed uptake in rat by lateral ventricular injection; format: in vivo; settings: 10 nmols/rat into the lateral ventricle; from 2 hours after the administration; compared to the control group (distilled water)
Experimental: The effect of GPR7 ligand (GPR7L) on feed uptake in rat by lateral ventricular injection was examined. Rat was caged at room temperature of 25° C. while lighting for 8 to 20 o'clock. Mature Wistar male rats (300-320 g body weight upon surgery) were anesthetized with an intraperitoneal injection of 50 mg/kg pentobarbital and placed in a rat brain stereotaxic instrument. The level of incisor bar was 3.3 mm below the interaural line. The skull was exposed, and using a dental drill a hole was made on the bone for implantation of guide cannula AG-8 (inner diameter of 0.4 mm, outer diameter of 0.5 mm, EICOM Corporation). In addition, an anchor screw was buried at 3 positions around the hole. A stainless-steel guide cannula, AG-8, was inserted in such a manner that the tip was situated at the upper part of the lateral ventricle. Stereotaxic coordinates were taken from the atlas according to the atlas of Paxinos & Watson (1986) from bregma AP: −0.8 mm, L:1.5 mm and H:−4.5 mm. The guide cannula was secured to the skull using a dental cement and an anchor screw. […]
After the guide cannula was implanted, rats were caged for about a week to recover from surgical operation. […] The infusion was continued from 19:00 to 20:00 o'clock, and the feed uptake thereafter was measured with passage of time, using a feed uptake measuring device Feed-Scale (Columbus, Inc.).

bovine GPR7 = target: T1, bovine GPR7 (Bos taurus, UniProt Q8MJV3); assay: Intracellular cAMP production suppression activity on bovine GPR7-expressed CHO cells; format: cell-based; settings: forskolin-promoted cAMP production; receptor-expressed CHO cells; read-out: IC50 (nM) bovine GPR7, cAMP production inhibition
T1 construct: expressed in transfected cells; host or cells: CHO cells
T1 sequence (Q8MJV3 1-331): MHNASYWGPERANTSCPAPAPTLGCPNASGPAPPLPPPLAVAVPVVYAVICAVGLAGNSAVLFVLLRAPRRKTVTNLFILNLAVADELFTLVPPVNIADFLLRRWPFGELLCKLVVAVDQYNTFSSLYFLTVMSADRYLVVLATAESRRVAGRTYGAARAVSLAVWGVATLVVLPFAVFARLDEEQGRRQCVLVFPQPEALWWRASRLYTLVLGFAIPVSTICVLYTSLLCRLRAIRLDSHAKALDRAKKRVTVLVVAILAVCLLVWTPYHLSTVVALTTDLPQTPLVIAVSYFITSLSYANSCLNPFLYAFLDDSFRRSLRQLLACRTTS
Experimental: The intracellular cAMP production suppression activity of peptides associated with various GPR7 ligands on CHO cells, in which human GPR7, bovine GPR8, human GPR8, human GPR8, bovine GPR8 and rat GPR7 were expressed, was examined. […] An assay buffer was prepared by adding 20 mM HEPES, pH7.4, 0.1% bovine serum albumin and 0.2 mM 3-isobutyl-1-methylxanthine (Sigma) to Hanks' Balanced Salt Solution (Gibco BRL). The plate incubated overnight was first washed twice with 150 μl of the assay buffer, and then exchanged with 150 μl of the assay buffer, followed by incubation for 30 minutes at 37° C. in 100% air. By adding 4 μM forskolin to the assay buffer, a buffer for sample dilution was prepared and the stock solution (10^−2 M of 10^−3 M) was diluted with the buffer thus obtained to prepare sample solutions in final concentrations of 10^−6 M, 10^−7 M, 10^−8 M, 10^−9 M and 10^−10 M. The plate incubated with the assay buffer for 30 minutes was taken out. After washing twice with the assay buffer, 50 μl of the assay buffer and then 50 μl of the sample solution were added thereto. Each sample was assayed in triplet. […] A difference between the maximum cAMP level and the cAMP level when each sample was added was calculated and the percentage of cAMP production level promoted by forskolin was worked out, which was made the cAMP production inhibition rate.

## WYKPTAGQGYYSVGRAAGLLSGFHRSPYA [Trp1-bovine GPR7L(29)]
Wistar male rats
  feed uptake: significant increase in feed uptake
Bovine GPR7
  IC50: 1.2 nM
